{"source": "patent US6262023A", "about": "“WD-40 derived peptides and uses thereof” (The Board of Trustees of the Leland Stanford Junior …, priority 1995, dated 2001)", "key": {"βPKC [1]": {"target": "βPKC (Rattus norvegicus, UniProt P68403)", "sequence (P68403 whole entry)": "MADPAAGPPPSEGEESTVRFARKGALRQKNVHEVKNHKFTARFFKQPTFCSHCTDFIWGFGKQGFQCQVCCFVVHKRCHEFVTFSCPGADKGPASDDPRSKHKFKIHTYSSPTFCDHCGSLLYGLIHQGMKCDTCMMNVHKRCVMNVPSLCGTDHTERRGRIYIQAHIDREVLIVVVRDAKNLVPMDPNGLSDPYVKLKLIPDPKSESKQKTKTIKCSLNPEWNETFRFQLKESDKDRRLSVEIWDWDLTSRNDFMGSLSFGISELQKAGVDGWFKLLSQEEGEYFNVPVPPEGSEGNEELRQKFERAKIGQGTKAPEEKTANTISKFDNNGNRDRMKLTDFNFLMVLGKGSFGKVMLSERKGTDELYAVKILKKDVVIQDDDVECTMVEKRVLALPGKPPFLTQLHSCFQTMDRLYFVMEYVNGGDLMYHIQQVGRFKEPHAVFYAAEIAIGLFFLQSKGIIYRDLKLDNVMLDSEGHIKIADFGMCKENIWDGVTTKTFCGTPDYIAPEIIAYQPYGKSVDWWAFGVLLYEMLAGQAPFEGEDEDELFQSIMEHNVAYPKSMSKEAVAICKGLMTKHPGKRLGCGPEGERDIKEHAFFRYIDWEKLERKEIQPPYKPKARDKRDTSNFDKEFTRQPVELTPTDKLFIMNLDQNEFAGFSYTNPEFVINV", "experiment": "PKC overlay of immobilized peptides (slot-blot)", "type": "binding", "set-up": "All the solutions contained 5 nM rat brain PKC in peptide overlay buffer; from tissue; host or cells: rat brain", "details": "DG and calcium", "description": "The binding of βPKC to peptide I (SEQ ID NO:1), peptide rVI (SEQ ID NO:7) and control peptide (SEQ ID NO:9) was assessed using a PKC overlay assay similar to that described in Example 3. Increasing amounts of peptides (0.5 μmole, 1.0 μmole, 5.0 μmole and 10.0 μmole) suspended in 20 mM NaCl were applied individually onto nitrocellulose using a slot-blot apparatus (Schleicher and Schuell, Keene, N.H.). The nitrocellulose membrane was washed three times, minutes per wash, in peptide overlay buffer and incubated for two hours in peptide overlay block buffer. The membrane was cut into sections and the sections were transferred to different PKC-containing solutions and incubated for 30 minutes at room temperature. All the solutions contained 5 nM rat brain PKC in peptide overlay buffer. Some solutions additionally contained PS, DG, and calcium. The membranes were then washed three times, 15 minutes per wash, in peptide overlay buffer and incubated in peptide overlay block buffer containing anti-βPKC monoclonal antibodies (1:1000 dilution; Seikagaku Kogyo, Tokyo, Japan). […]\nBinding of PKC was determined using chemiluminescence as described in Example 3, part C. Quantitation of PKC binding was carried out using a \"MICRO SCAN\" 1000 gel analyzer (Galai Inc., Yokneam, Israel)."}, "[2]": {"system": "PKC-mediated germinal vesicle breakdown (GVBD) in Xenopus oocytes", "experiment": "PKC-mediated Xenopus oocyte maturation (germinal vesicle breakdown, GVBD) after peptide microinjection", "type": "cell-based", "description": "Exposure to insulin induces maturation in Xenopus oocytes via a PKC-dependent pathway (Smith, et al., 1992). The maturation response may be quantified by monitoring the appearance of a white spot in the animal hemisphere of the oocyte, indicating germinal vesicle breakdown (GVBD) and maturation. To assess the effects of RACK1 WD-40-derived peptides on insulin-induced PKC-mediated maturation, 50 nl of a 20 mM NaCl solution containing the indicated peptides [peptide I (SEQ ID NO:1; .circle-solid.), peptide rVI (SEQ ID NO:7; .box-solid.), or injection solution (.quadrature.)] […] One hour following the peptide injections, the oocytes were exposed to a solution containing insulin (8.25 μg/ml) for 2 minutes (t=0). 10-15 oocytes were used for each sample.\nThe data, representative of three independent experiments, are expressed as the percent of oocytes with GVBD following insulin exposure and are plotted as a function of time in FIG. 5."}, "PKC": {"system": "PKC", "experiment": "PKC autophosphorylation", "type": "biochemical, rat", "details": "10 μM peptide; no PS, DG, calcium", "description": "Rat brain PKC (~10 nM) was incubated with mild agitation in a final volume of 250 μl of overlay buffer, as in Example 1 either with anti-βPKC pseudosubstrate antibodies (1:10 dilution, Life Technologies, Gaithersburg, Md.) or with the indicated peptide (10 μM). Where indicated, PS (50 μg/ml), DG (0.8 μg/ml) and CaCl2 (1 mM) were also added. The amount of autophosphorylation was determined after 2 hours for the reaction with the anti-pseudosubstrate antibodies, or after 15 minutes for the other samples. 50 μl of a buffer comprised of 20 mM Tris-HCl (pH 7.5), 20 mM MgCl2, 20 μM ATP and 5 μci/ml [γ-^32 P]ATP. The mixture was incubated for 15 minutes at room temperature and the reaction was stopped by adding 60 μl sample buffer (see Example 9). The samples were then boiled for 10 minutes, loaded onto a 10% SDS-PAGE mini gel and electrophoresed. The gel was fixed with 50% methanol and 10% acetic acid for 1 hour, and the autophosphorylation of PKC was determined by autoradiography."}, "βPKC [3]": {"system": "βPKC", "experiment": "βPKC translocation (soluble vs particulate fraction) in Xenopus oocytes", "type": "cell-based", "details": "50 μM peptide microinjected", "description": "Insulin causes the translocation of βPKC, but not other PKC isozymes, from a cytosolic form to a membrane-associated form, as evidenced by the relative levels of PKC in the soluble vs. the particulate fraction of oocyte homogenate. To assess the effects of RACK1 WD-40-derived peptides on insulin-induced PKC translocation, 50 nl of a 20 mM NaCl solution containing the indicated peptides were microinjected into Xenopus oocytes. The oocytes were then homogenized, and the relative amount of PKC in the soluble and particulate fractions was assayed. The protocol followed was a modification of a method described by Smith, et al. (1992).\nBatches of 50 oocytes were microinjected with either peptide rVI (SEQ ID NO:7; 50 μM; lanes 3, 4), peptide I (SEQ ID NO:1; 50 μM, lanes 7, 8) or injection solution (NaCl 20 mM, lanes 1,2 and 5,6). Homogenates from each batch were prepared 60 minutes after microinjection (lanes 1-4) or 60 minutes after addition of insulin (lanes 5-8). The homogenates were centrifuged at 10,000 g for 3 minutes, the upper layer (containing fat and yolk) was removed, and the remainder was frozen at -70° C. […] The amount of PKC in each fraction was determined by Western blot using anti-βPKC antibodies (1:1000 dilution; Seikagaku Kogyo, Tokyo, Japan). Bound primary antibodies were detected by chemiluminescence as described in Example 3, part C."}, "δ and εPKC isozymes": {"system": "δ and εPKC isozymes", "experiment": "PKC isozyme translocation and degradation in cardiac myocytes", "type": "cell-based, rat", "details": "peptide introduced into cardiac myocytes", "source_text": "This peptide-induced translocation was followed by degradation of δ and εPKC isozymes."}}, "data": [{"substance": "peptide I: 15-residue peptide homologous to a sequence in the sixth WD-40 repeat of RACK1; PKC antagonist (KGDYEKILVALCGGN)", "values": [{"measurement": "peptide amount at which activated PKC bound to immobilized peptide (as low as)", "setting": "βPKC [1]; PKC with PS, 5 nM rat brain PKC, 0.5-10.0 μmole peptide on nitrocellulose", "result": "≤ 5", "unit": "µmol"}, {"measurement": "binding of unactivated PKC to immobilized peptide", "setting": "βPKC [1]; PKC without PS", "result": "did not bind"}, {"measurement": "plateau of % GVBD following insulin exposure", "setting": "[2]; 50 nl of 50 μM peptide microinjected, insulin 8.25 μg/ml", "result": "45-50 % GVBD"}, {"measurement": "dose dependence of effect on GVBD", "setting": "[2]; between 5 μm-500 μM", "result": "dose-dependent"}, {"measurement": "fraction of oocytes exposed to insulin that reach maturation", "setting": "[2]; peptide microinjected, insulin", "result": "45-50%"}, {"measurement": "induction of PKC autophosphorylation in the absence of PKC activators", "setting": "PKC", "result": "Neither peptide I nor control peptide induced PKC autophosphorylation"}, {"measurement": "effect on insulin (hormone)-induced βPKC translocation", "setting": "βPKC [3]; 60 minutes after addition of insulin", "result": "inhibited insulin-induced βPKC translocation"}, {"measurement": "βPKC distribution / translocation in the absence of insulin treatment", "setting": "βPKC [3]; homogenate 60 minutes after microinjection", "result": "did not affect βPKC distribution"}, {"measurement": "effect on NE-induced translocation of PKC isozymes", "setting": "δ and εPKC isozymes; norepinephrine 2 μM", "result": "inhibited"}, {"measurement": "degradation of δ and εPKC isozymes", "setting": "δ and εPKC isozymes", "result": "nor does it induce PKC degradation"}, {"measurement": "translocation / distribution of δ and εPKC isozymes in the absence of hormone stimulation", "setting": "δ and εPKC isozymes", "result": "does not affect PKC distribution"}]}]}
